# Measurements: publication PMC2866134 (Bioorganic & medicinal chemistry letters, 2010)
# Columns and labels:
# [1] = molecular target: VEGFR-1 (Homo sapiens, UniProt P17948); assay: VEGFR-1 inhibition, whole cell phosphotyrosine ELISA cytoblot; assay type: cell-based; conditions: whole cell assay
# [2] = molecular target: PDGFR-β (Homo sapiens, UniProt P09619); assay: PDGFR-β inhibition, whole cell phosphotyrosine ELISA cytoblot; assay type: cell-based; conditions: whole cell assay
# Chain of PDGFR-β (P09619 33-1106): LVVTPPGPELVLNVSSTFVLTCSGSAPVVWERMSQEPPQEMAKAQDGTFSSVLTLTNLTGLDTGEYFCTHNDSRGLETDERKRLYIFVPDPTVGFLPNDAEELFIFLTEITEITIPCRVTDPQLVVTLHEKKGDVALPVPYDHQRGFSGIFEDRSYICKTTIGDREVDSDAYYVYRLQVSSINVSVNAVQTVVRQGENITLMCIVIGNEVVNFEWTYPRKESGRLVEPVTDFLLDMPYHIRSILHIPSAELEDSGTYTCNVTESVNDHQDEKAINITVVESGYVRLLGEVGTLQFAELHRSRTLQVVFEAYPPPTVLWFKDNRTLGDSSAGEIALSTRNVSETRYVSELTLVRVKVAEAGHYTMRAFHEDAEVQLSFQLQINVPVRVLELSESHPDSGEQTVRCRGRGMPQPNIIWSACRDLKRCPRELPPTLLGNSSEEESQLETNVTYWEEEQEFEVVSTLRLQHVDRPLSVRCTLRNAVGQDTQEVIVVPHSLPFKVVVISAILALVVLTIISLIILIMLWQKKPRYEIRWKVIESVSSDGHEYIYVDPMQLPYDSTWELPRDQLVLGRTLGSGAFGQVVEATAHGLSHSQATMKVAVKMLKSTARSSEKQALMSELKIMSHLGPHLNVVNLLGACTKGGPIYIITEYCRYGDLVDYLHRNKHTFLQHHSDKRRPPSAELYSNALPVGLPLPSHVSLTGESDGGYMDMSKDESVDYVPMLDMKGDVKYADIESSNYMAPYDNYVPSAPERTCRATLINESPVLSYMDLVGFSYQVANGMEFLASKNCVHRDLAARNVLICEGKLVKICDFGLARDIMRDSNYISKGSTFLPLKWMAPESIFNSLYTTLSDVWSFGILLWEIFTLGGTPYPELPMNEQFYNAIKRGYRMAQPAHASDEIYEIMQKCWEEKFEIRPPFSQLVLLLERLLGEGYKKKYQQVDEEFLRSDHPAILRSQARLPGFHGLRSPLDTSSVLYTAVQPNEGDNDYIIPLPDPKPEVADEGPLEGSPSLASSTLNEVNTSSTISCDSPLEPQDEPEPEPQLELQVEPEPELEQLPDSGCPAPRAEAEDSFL
# Chain of VEGFR-1 (P17948 27-1338): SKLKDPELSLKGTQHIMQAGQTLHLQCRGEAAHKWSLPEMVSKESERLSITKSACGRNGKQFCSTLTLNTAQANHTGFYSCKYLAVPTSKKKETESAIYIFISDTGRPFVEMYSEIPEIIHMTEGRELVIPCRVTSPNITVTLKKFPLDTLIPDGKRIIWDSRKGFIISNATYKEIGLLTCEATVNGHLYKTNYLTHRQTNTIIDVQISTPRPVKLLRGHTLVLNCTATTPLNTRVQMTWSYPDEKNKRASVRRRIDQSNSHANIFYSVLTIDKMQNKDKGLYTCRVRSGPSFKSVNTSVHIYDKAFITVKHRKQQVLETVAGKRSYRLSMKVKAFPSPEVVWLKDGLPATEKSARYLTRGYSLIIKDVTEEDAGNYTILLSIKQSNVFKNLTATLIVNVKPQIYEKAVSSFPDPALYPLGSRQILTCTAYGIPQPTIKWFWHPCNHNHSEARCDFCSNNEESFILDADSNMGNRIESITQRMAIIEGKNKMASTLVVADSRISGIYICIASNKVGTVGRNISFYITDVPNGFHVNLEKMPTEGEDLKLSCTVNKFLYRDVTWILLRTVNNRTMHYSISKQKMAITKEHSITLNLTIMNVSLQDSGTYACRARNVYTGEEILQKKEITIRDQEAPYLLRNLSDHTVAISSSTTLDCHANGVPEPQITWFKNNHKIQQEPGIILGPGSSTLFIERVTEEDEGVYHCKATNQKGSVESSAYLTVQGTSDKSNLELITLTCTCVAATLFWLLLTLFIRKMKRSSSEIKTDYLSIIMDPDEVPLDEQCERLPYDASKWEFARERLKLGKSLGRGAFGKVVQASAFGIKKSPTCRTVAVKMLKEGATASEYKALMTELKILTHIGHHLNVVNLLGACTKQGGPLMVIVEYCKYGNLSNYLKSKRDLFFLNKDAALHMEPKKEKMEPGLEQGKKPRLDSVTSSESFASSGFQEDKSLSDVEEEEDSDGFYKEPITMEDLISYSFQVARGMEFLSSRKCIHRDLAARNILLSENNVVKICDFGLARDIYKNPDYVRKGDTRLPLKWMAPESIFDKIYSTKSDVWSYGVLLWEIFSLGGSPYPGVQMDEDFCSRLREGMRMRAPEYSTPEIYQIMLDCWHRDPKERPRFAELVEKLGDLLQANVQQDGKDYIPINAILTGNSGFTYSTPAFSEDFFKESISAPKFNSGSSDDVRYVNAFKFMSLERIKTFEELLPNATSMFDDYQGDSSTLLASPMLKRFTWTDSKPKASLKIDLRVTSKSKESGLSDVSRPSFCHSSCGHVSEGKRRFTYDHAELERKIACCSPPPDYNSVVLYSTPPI
"VEGFR-1 inhibition, result in words [1]","PDGFR-β inhibition, result in words [2]",Compound
inactive,inactive,FC(F)(F)c1cccc(Nc2ncnc3[nH]c(CCc4ccccc4)cc23)c1 [Compound 21]
–,inactive,C#Cc1cccc(Nc2ncnc3[nH]c(CCc4ccccc4)cc23)c1 [Compound 20]

# Further lines, the compound ahead of its results:
Compound,"VEGFR-1 inhibition, result in words [1]","PDGFR-β inhibition, result in words [2]"
Fc1cc(Cl)ccc1Nc1ncnc2[nH]c(CCc3ccccc3)cc12 [Compound 24],inactive,inactive
Fc1ccc(Nc2ncnc3[nH]c(CCc4ccccc4)cc23)cc1C(F)(F)F [Compound 23],–,inactive
Fc1ccc(Nc2ncnc3[nH]c(CCc4ccccc4)cc23)cc1Br [Compound 22],inactive,–
